Reference: the supplement of paper PMC10307832

How the values were obtained:
Assay in all cases: relative viability (nuclei count vs DMSO), 5 days (fraction); higher = more cells survive
[1] = compound: Cn1c(=O)n(-c2ccc(C(C)(C)C#N)cc2)c2c3cc(-c4cnc5ccccc5c4)ccc3ncc21 [Dactolisib] + Nc1ncn([C@H]2C[C@H](O)[C@@H](CO)O2)c(=O)n1 [Decitabine] (partner 2 µM)
How it was run: (§1)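 A single step with final 0.05% Triton X-100, 1% formaldehyde and 1 ug/ml Hoechst fixed the cells and stained nuclei 5 days after treatment. Lung cancer cell lines in 1536-well plates had been treated by pin tool the day after seeding with one drug alone or a fixed anchor-drug dose plus five library-drug doses (not always all listed) in √10 steps, and nuclei were counted on 4× images. Relative viability is the ratio of nuclei in treated wells to nuclei in vehicle wells, taken as the median of duplicate plates.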

[2] = compound: Cn1c(=O)n(-c2ccc(C(C)(C)C#N)cc2)c2c3cc(-c4cnc5ccccc5c4)ccc3ncc21 [Dactolisib] + C[C@]1(O)C[C@@H](c2nc(-c3ccc4ccc(-c5ccccc5)nc4c3)c3c(N)nccn32)C1 [Linsitinib] (partner 1 µM)
How it was run: as §1

[3] = compound: C1CCC(CC1)N(CCNCCC2=C3C(=C(C=C2)O)NC(=O)CO3)C(=O)CCNCCC4=CC(=C(C=C4)Cl)Cl [AZ505] + CCNC(=O)c1noc(-c2cc(C(C)C)c(O)cc2O)c1-c1ccc(CN2CCOCC2)cc1 [Luminespib] (partner 0.01 µM)
How it was run: as §1

[4] = compound: Cn1c(=O)n(-c2ccc(C(C)(C)C#N)cc2)c2c3cc(-c4cnc5ccccc5c4)ccc3ncc21 [Dactolisib] + CC(=O)Nc1cccc(-n2c(=O)n(C3CC3)c(=O)c3c(Nc4ccc(I)cc4F)n(C)c(=O)c(C)c32)c1 [Trametinib] (partner 0.02 µM)
How it was run: as §1

| Cell Line | relative viability ([1]; first compound 0.002 µM) | relative viability ([1]; first compound 0.006325 µM) | relative viability ([1]; first compound 0.02 µM) | relative viability ([1]; first compound 0.06325 µM) | relative viability ([1]; first compound 0.2 µM) | relative viability ([2]; first compound 0.002 µM) | relative viability ([2]; first compound 0.006325 µM) | relative viability ([2]; first compound 0.02 µM) | relative viability ([2]; first compound 0.06325 µM) | relative viability ([2]; first compound 0.2 µM) | relative viability ([3]; first compound 0.08 µM) | relative viability ([3]; first compound 0.253 µM) | relative viability ([3]; first compound 0.8 µM) | relative viability ([3]; first compound 2.53 µM) | relative viability ([3]; first compound 8 µM) | relative viability ([4]; first compound 0.002 µM) | relative viability ([4]; first compound 0.006325 µM) | relative viability ([4]; first compound 0.02 µM) | relative viability ([4]; first compound 0.06325 µM) | relative viability ([4]; first compound 0.2 µM) |
| --- | --- | --- | --- | --- | --- | --- | --- | --- | --- | --- | --- | --- | --- | --- | --- | --- | --- | --- | --- | --- |
| NCI-H2023 | 0.224 | 0.225 | 0.218 | 0.115 | 0.0931 | 0.697 | 0.523 | 0.622 | 0.154 | 0.133 | 0.727 | 0.873 | 0.712 | 0.83 | 0.968 | 0.582 | 0.461 | 0.304 | 0.103 | 0.0921 |
| NCI-H2085 | 0.685 | 0.496 | 0.514 | 0.405 | 0.373 | 1.03 | 0.714 | 0.636 | 0.361 | 0.381 | 0.378 | 0.41 | 0.423 | 0.4 | 0.403 | 0.712 | 0.455 | 0.241 | 0.266 | 0.231 |
| NCI-H2087 | 0.314 | 0.265 | 0.249 | 0.205 | 0.133 | 1.02 | 0.955 | 0.919 | 0.555 | 0.429 | 0.171 | 0.191 | 0.217 | 0.154 | 0.238 | 0.229 | 0.217 | 0.214 | 0.127 | 0.114 |
| NCI-H2126 | 0.645 | 0.663 | 0.55 | 0.462 | 0.416 | 0.807 | 0.662 | 0.674 | 0.521 | 0.422 | 0.771 | 0.889 | 0.903 | 0.943 | 1.02 | 0.557 | 0.548 | 0.433 | 0.38 | 0.306 |
| NCI-H2347 | 0.682 | 0.581 | 0.62 | 0.541 | 0.473 | 1.29 | 0.47 | 0.893 | 0.68 | 0.385 | 0.32 | – | – | – | 0.494 | 0.277 | 0.262 | 0.263 | 0.158 | 0.295 |
| NCI-H2405 | 0.803 | 0.76 | 0.687 | 0.429 | 0.352 | 0.936 | 0.76 | 0.755 | 0.323 | 0.275 | 0.598 | 0.474 | 0.586 | 0.597 | 0.474 | 0.469 | 0.665 | 0.56 | 0.389 | 0.253 |
| NCI-H3122 | 0.376 | 0.369 | 0.415 | 0.284 | 0.304 | 0.982 | 0.993 | 0.989 | 0.671 | 0.53 | 0.0979 | 0.0993 | 0.0953 | 0.0964 | 0.0997 | 0.207 | 0.218 | 0.232 | 0.219 | 0.176 |
| PC-3 [JPC-3] | 0.87 | 0.783 | 0.878 | 0.786 | 0.655 | 0.996 | 0.984 | 1.03 | 0.816 | 0.639 | 0.65 | 0.697 | 0.661 | 0.635 | 0.739 | 0.718 | 0.673 | 0.76 | 0.595 | 0.451 |
| PC-14 | 0.333 | 0.222 | 0.261 | 0.161 | 0.138 | 1.04 | 1.02 | 0.945 | 0.644 | 0.407 | 0.135 | 0.215 | 0.135 | 0.145 | 0.132 | 0.81 | 0.583 | 0.367 | 0.0961 | 0.0834 |
| RERF-LC-KJ | 0.752 | 0.726 | 0.644 | 0.316 | 0.443 | 0.86 | 0.908 | 0.849 | 0.646 | 0.495 | 1.24 | 1.33 | 1.22 | 1.2 | 1.03 | 0.86 | 0.902 | 0.772 | 0.407 | 0.467 |
| SK-LU-1 | 0.523 | 0.72 | 0.6 | 0.44 | 0.388 | 1.26 | 0.988 | 0.728 | 0.494 | 0.397 | 0.201 | 0.203 | 0.18 | 0.18 | 0.176 | 0.476 | 0.657 | 0.392 | 0.34 | 0.283 |
| SK-MES-1 | 0.43 | 0.362 | 0.369 | 0.251 | 0.231 | 1.1 | 1.12 | 0.999 | 0.953 | 0.467 | 0.511 | 0.77 | 0.758 | 0.643 | 0.768 | 0.581 | 0.528 | 0.467 | 0.355 | 0.263 |
| SW 1573 | 0.556 | 0.336 | 0.299 | 0.185 | 0.149 | 0.824 | 0.606 | 0.525 | 0.297 | 0.242 | 0.165 | 0.257 | 0.427 | 0.0963 | 0.277 | 0.529 | 0.438 | 0.482 | 0.144 | 0.163 |
